# Values quoted from earlier work in EP4803073A2, “METHODS AND COMPOSITIONS FOR TREATMENT OF DISORDERS AMELIORATED BY MUSCARINIC RECEPTOR ACTIVATION” (Puretech Health LLC, priority 2009, dated 2011).
# Key:
# [1] = with the anticholinergic agent glycopyrrolate; escalating amounts of RS-86
# [2] = clozapine-associated sialorrhea
# [3] = given with the muscarinic agonist xanomeline; syncope is a side effect observed with xanomeline
# [4] = double-blind placebo controlled trial
# [5] = phase I and subsequent trials
structure (smiles),measurement,setting,value
CCN1C(=O)CC2(CCN(C)CC2)C1=O [RS-86],improvement in cognition,[1],did not result in any improvement in cognition
Clc1cccc(Cl)c1N=C1NCCN1 [clonidine],efficacy in reducing sialorrhea,[2],shown efficacy in reducing sialorrhea in small scale trials
C[N+]1(C)[C@@H]2C[C@@H](OC(=O)[C@H](CO)c3ccccc3)C[C@H]1[C@@H]1O[C@@H]12 [methscopolamine],effect on syncope,[3],no effect on syncope
CCCCCCOc1nsnc1C1=CCCN(C)C1 [xanomeline],alleviation of schizophrenia,[4],alleviation of schizophrenia was observed
same,side effects,[5],unacceptable GI side effects
